Measurements: patent EP3800188A1, “SUBSTITUTED PYRAZOLOPYRIMIDINES AS IRAK4 INHIBITORS” (Bayer AG, priority 2019, dated 2021)

Each molecule was assayed against T1, human IRAK4 (Homo sapiens, UniProt Q9NWZ3) (assay: Human IRAK4 kinase activity inhibition assay (IRAK4 TR-FRET assay)). Settings: 1 mM ATP, GST-human IRAK4, average or median values.
T1 construct: GST (N); made in house; host or cells: baculovirus-infected Hi5 (BTI-TN-5B1-4) insect cells
T1 sequence (Q9NWZ3 1-460): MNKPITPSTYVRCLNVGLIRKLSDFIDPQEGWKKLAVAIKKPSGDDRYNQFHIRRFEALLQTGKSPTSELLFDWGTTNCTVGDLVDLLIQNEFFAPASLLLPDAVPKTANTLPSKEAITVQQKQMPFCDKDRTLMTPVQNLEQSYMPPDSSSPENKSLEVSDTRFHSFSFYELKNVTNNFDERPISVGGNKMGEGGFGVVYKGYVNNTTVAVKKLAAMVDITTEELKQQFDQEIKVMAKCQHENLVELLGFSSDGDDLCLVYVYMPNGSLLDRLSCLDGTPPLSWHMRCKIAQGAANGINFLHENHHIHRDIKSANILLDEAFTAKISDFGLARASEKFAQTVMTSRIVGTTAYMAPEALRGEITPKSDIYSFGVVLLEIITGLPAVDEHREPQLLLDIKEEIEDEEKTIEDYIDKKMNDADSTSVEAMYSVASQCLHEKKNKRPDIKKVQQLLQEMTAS
Assay type: biochemical
Method: The IRAK4-inhibitory activity of the inventive substances was measured in the IRAK4 TR-FRET assay (TR-FRET = Time Resolved Fluorescence Resonance Energy Transfer) described hereinafter.
Recombinant fusion protein from N-terminal GST (glutathione S-transferase) and human IRAK4, expressed in baculovirus-infected insect cells (Hi5, BTI-TN-5B1-4, cell line purchased from Invitrogen, catalogue No. B855-02) and purified via affinity chromatography, was used as enzyme. The substrate used for the kinase reaction was the biotinylated peptide biotin-Ahx-[…] (C-terminus in amide form) which can be purchased, for example, from Biosyntan GmbH (Berlin-Buch). For the assay, 11 different concentrations in the range from 20 µM to 0.073 nM were prepared from a 2 mM DMSO solution of the test substance. 50 nl of the respective 100fold concentrated test compound solutions in DMSO were pipetted into a black low-volume 384-well microtitre plate or a black 1536-well microtiter plate (both Greiner Bio-One, Frickenhausen, Germany), 2 µl of a solution of IRAK4 in assay buffer [50 mM HEPES pH 7.5, 5mM MgCl2, 1.0 mM dithiothreitol, 30 µM activated sodium orthovanadate, 0.1% (w/v) of bovine gamma-globulin (BGG) 0.04% (v/v) nonidet-P40 (Sigma)] were added and the mixture was incubated for 15 min to allow prebinding of the substances to the enzyme prior to the kinase reaction. […] The concentration of the IRAK4 was adjusted to the respective activity of the enzyme and set such that the assay was carried out in the linear range. Typical concentrations were in the order of about 0.2 nM. The reaction was stopped by addition of 5 µl of a solution of TR-FRET detection reagents [0.1 µM streptavidin-XL665 (Cisbio Bioassays; France, catalogue No. 610SAXLG)] and 1.5 nM anti-phosphoserine antibody [Merck Millipore, "STK Antibody", catalogue No. 35-002] and 0.6 nM LANCE EU-W1024-labelled anti-mouse-IgG antibody (Perkin-Elmer, product No. AD0077; alternatively, it is possible to use a terbium cryptate-labelled anti-mouse-IgG antibody from Cisbio Bioassays) in aqueous EDTA solution (100 mM EDTA, 0.4 % [w/v] bovine serum albumin [BSA] in 25 mM HEPES pH 7.5). The resulting mixture was incubated at 22°C for 1 h to allow formation of a complex of the biotinylated phosphorylated substrate and the detection reagents. The amount of the phosphorylated substrate was then evaluated by measuring the resonance energy transfer from europium chelate-labelled anti-mouse-IgG antibody to streptavidin-XL665. To this end, the fluorescence emissions at 620 nm and 665 nm were measured after excitation at 350 nm in a TR-FRET measuring instrument, for example a Rubystar (BMG Labtechnologies, Offenburg, Germany) or a Viewlux (Perkin-Elmer). The ratio of the emissions at 665 nm and 622 nm was taken as a measure of the amount of phosphorylated substrate. The data were normalized (enzyme reaction without test substance = 0% inhibition; all other assay components but no enzyme = 100% inhibition).

Structure (SMILES)	IC50 [nM]
C[C@]1(O)C[C@H](Nc2nc(N3CC(N4CCOCC4=O)C3)c3cnn(-c4cccc(C(F)(F)F)c4)c3n2)C1 [Example I-122, 4-(1-{6-[(trans-3-hydroxy-3-methylcyclobutyl)amino]-1-[3-(trifluoromethyl)phenyl]-1H-pyrazolo[3,4-d]pyrimidin-4-yl}azetidin-3-yl)morpholin-3-one]	2.75
CC(C)(O)CC1CN(c2nc(N[C@H]3C[C@@]4(CCN4)C3)nc3c2cnn3-c2cccc(C(F)F)c2)C1 [II-36, 1-(1-{6-[(4r,6s)-1-azaspiro[3.3]heptan-6-ylamino]-1-[3-(difluoromethyl)phenyl]-1H-pyrazolo[3,4-d]pyrimidin-4-yl}azetidin-3-yl)-2-methylpropan-2-ol]	2.76
CCS(=O)(=O)[C@H]1C[C@H](Nc2nc(N3C[C@H](O)[C@@H](F)C3)c3cnn(-c4cccc(C(F)(F)F)c4)c3n2)C1 [Example I-95, (3S,4S)-1-(6-{[(1r,3S)-3-(ethylsulfonyl)cyclobutyl]amino}-1-[3-(trifluoromethyl)phenyl]-1H-pyrazolo[3,4-d]pyrimidin-4-yl)-4-fluoropyrrolidin-3-ol]	25
CC(C)(O)C1CCN(c2nc(N[C@H]3CCC(=O)NC3)nc3c2cnn3-c2cccc(C(F)(F)F)c2)CC1 [Example I-7-2, (5S)-5-({4-[4-(2-hydroxypropan-2-yl)piperidin-1-yl]-1-[3-(trifluoromethyl)phenyl]-1H-pyrazolo[3,4-d]pyrimidin-6-yl}amino)piperidin-2-one]	33.8
CC(C)(O)C1CCN(c2nc(N[C@@H]3CN4CCC3CC4)nc3c2cnn3-c2cccc(C(F)(F)F)c2)CC1 [Example I-64-2]	58.9
CN1CC[C@@H](Nc2nc(N3CCC(CC(C)(C)O)CC3)c3cnn(-c4cccc(C(F)(F)F)c4)c3n2)C1 [Example I-25-1, 2-methyl-1-[1-(6-{[(3R)-1-methylpyrrolidin-3-yl]amino}-1-[3-(trifluoromethyl)phenyl]-1H-pyrazolo[3,4-d]pyrimidin-4-yl)piperidin-4-yl]propan-2-ol]	40.3
CN1CC(Nc2nc(N3CCC(C(C)(C)O)CC3)c3cnn(-c4cccc(C(F)(F)F)c4)c3n2)CC1=O (stereo not drawn) [Example I-8, 4-({4-[4-(2-hydroxypropan-2-yl)piperidin-1-yl]-1-[3-(trifluoromethyl)phenyl]-1H-pyrazolo[3,4-d]pyrimidin-6-yl}amino)-1-methylpyrrolidin-2-one]	41.4
CCC1(O)CN(c2nc(N[C@H]3CNC(=O)C3)nc3c2cnn3-c2cccc(C(F)(F)F)c2)C1 [Example I-3-2, (4R)-4-({4-(3-ethyl-3-hydroxyazetidin-1-yl)-1-[3-(trifluoromethyl)phenyl]-1H-pyrazolo[3,4-d]pyrimidin-6-yl}amino)pyrrolidin-2-one]	167
CS(=O)(=O)N1CC(Nc2nc(N3C[C@H](O)[C@@H](F)C3)c3cnn(-c4cccc(OC(F)F)c4)c3n2)C1 [IV-6, (3S,4S)-1-(1-[3-(difluoromethoxy)phenyl]-6-{[1-(methylsulfonyl)azetidin-3-yl]amino}-1H-pyrazolo[3,4-d]pyrimidin-4-yl)-4-fluoropyrrolidin-3-ol]	193
NC1CCN(c2nc(NC3CCS(=O)(=O)CC3)nc3c2cnn3-c2cccc(C(F)(F)F)c2)CC1(F)F (racemic) [Example I-105, 4-[(4RS)-4-amino-3,3-difluoropiperidin-1-yl]-N-(1,1-dioxidotetrahydro-2H-thiopyran-4-yl)-1-[3-(trifluoromethyl)phenyl]-1H-pyrazolo[3,4-d]pyrimidin-6-amine]	280

Continued by falling IC50, values first:

IC50 [nM]	Structure (SMILES)
24.7	CC(C)(O)C1CCN(c2nc(N[C@H]3C[C@@](C)(O)C3)nc3c2cnn3-c2cccc(C(F)(F)F)c2)CC1 [Example I-90, cis-3-({4-[4-(2-hydroxypropan-2-yl)piperidin-1-yl]-1-[3-(trifluoromethyl)phenyl]-1H-pyrazolo[3,4-d]pyrimidin-6-yl}amino)-1-methylcyclobutanol]
23.4	O[C@@H]1CCN(c2nc(N[C@H]3C[C@@H](O)C3)nc3c2cnn3-c2cccc(C(F)(F)F)c2)C1 [Example I-117, (3R)-1-(6-{[(1s,3S)-3-hydroxycyclobutyl]amino}-1-[3-(trifluoromethyl)phenyl]-1H-pyrazolo[3,4-d]pyrimidin-4-yl)pyrrolidin-3-ol]
16.5	O[C@@H]1CCN(c2nc(N[C@H]3C[C@H](O)C3)nc3c2cnn3-c2cccc(C(F)F)c2)C1 [II-33, (3R)-1-(1-[3-(difluoromethyl)phenyl]-6-{[(1r,3R)-3-hydroxycyclobutyl]amino}-1H-pyrazolo[3,4-d]pyrimidin-4-yl)pyrrolidin-3-ol]
16.5	O[C@H]1C[C@H](Nc2nc(N3CC(N4CC(F)C4)C3)c3cnn(-c4cccc(C(F)(F)F)c4)c3n2)C1 [Example I-119, trans-3-({4-(3-fluoro[1,3'-biazetidin]-1'-yl)-1-[3-(trifluoromethyl)phenyl]-1H-pyrazolo[3,4-d]pyrimidin-6-yl}amino)cyclobutanol]
16.2	CC(C)(O)C1CCN(c2nc(NC3CN(S(=O)(=O)C4CC4)C3)nc3c2cnn3-c2cccc(C(F)F)c2)CC1 [II-30, 2-[1-(6-{[1-(cyclopropylsulfonyl)azetidin-3-yl]amino}-1-[3-(difluoromethyl)phenyl]-1H-pyrazolo[3,4-d]pyrimidin-4-yl)piperidin-4-yl]propan-2-ol]
11.2	CS(=O)(=O)[C@H]1C[C@H](Nc2nc(N3CCC(O)CC3)c3cnn(-c4cccc(C(F)(F)F)c4)c3n2)C1 [Example I-93, 1-(6-{[trans-3-(methylsulfonyl)cyclobutyl]amino}-1-[3-(trifluoromethyl)phenyl]-1H-pyrazolo[3,4-d]pyrimidin-4-yl)piperidin-4-ol]
9.69	CC(C)(O)C1CCN(c2nc(NC3CNC(=O)C3)nc3c2cnn3-c2cccc(C(F)(F)F)c2)CC1 (stereo not drawn) [Example I-2-3, 4-({4-[4-(2-hydroxypropan-2-yl)piperidin-1-yl]-1-[3-(trifluoromethyl)phenyl]-1H-pyrazolo[3,4-d]pyrimidin-6-yl}amino)pyrrolidin-2-one]
7.08	CC(C)(O)CC1CCN(c2nc(N[C@@H]3CNC(=O)C3)nc3c2cnn3-c2cccc(C(F)(F)F)c2)CC1 [Example I-24, (4S)-4-({4-[4-(2-hydroxy-2-methylpropyl)piperidin-1-yl]-1-[3-(trifluoromethyl)phenyl]-1H-pyrazolo[3,4-d]pyrimidin-6-yl}amino)pyrrolidin-2-one]
6.15	O[C@H]1C[C@H](Nc2nc(N3CC(N4CCOCC4)C3)c3cnn(-c4cccc(C(F)F)c4)c3n2)C1 [II-25, trans-3-({1-[3-(difluoromethyl)phenyl]-4-[3-(morpholin-4-yl)azetidin-1-yl]-1H-pyrazolo-[3,4-d]pyrimidin-6-yl}amino)cyclobutanol]
4.17	C[C@H]1CN(c2nc(N[C@H]3C[C@H](S(C)(=O)=O)C3)nc3c2cnn3-c2cccc(C(F)F)c2)C[C@@H]1O (single isomer, unassigned) [II-17-3, (3R*,4S*)-1-(1-[3-(difluoromethyl)phenyl]-6-{[trans-3-(methylsulfonyl)cyclobutyl]amino}-1H-pyrazolo[3,4-d]pyrimidin-4-yl)-4-methylpyrrolidin-3-ol]
3.65	O=C1COCCN1C1CN(c2nc(N[C@H]3C[C@@H](O)C3)nc3c2cnn3-c2cccc(C(F)(F)F)c2)C1 [Example I-121, 4-(1-{6-[(cis-3-hydroxycyclobutyl)amino]-1-[3-(trifluoromethyl)phenyl]-1H-pyrazolo[3,4-d]pyrimidin-4-yl}azetidin-3-yl)morpholin-3-one]
